Test results taken from patent publication US4265886A, “Spiroketalins and their applications” (Roecar Holdings (Netherlands Antilles (NV), priority 1978, dated 1981).
In brackets after ≈: the same amount, converted by molar mass. Read-outs that look alike come from different tables or passages of the source.

Experiments:
[1] = system: erysipelas-induced arthritis (aortic thrombi); test: erysipelas-induced arthritis in the rat: aortic thrombi; assay type: in vivo, rat (male Wistar); conditions: 3×10 mg/kg per day, 5× per week; for AORTIC THROMBI Present in % of rats: control 90; for AORTIC THROMBI Degree of severity: key 0=No change, 1=Very slight, 2=Slight to medium, 3=Medium to severe, 4=Severe changes, control 2,60 (± 1,35)
Method: (§1) The investigation was carried out according to Schulze et al (17 in Betr. Path., 1975, 154, 1-26 and 27-51). Erysipelas arthritis is reproducible in nearly 100% of the rats given a single subcutaneous injection of E. insidiosa. Erysipelas arthritis always afflicts several joints with the same intensity in both major and minor limb joints, besides the coagulopathy and the pathological changes produced in the cardio-vascular system. Proliferating processes occur after 3 months in all surviving animals subjected to experimental erysipelas arthritis.
(§2) In order to test the spiroketalins of this invention the following parameters of the erysepilas arthritis model were used to evaluate their activities:
Fibrin-rich thrombi develop on aorta intima between the 6th and 11th day. The largest spread extended area can be observed around the 8th day.
(§3) Male Wistar rats between 155-185 g were used for these trials. The animals, kept in single cages, received a standard rat diet (Ssniff R) and water ad libitum. Room temperature was kept at 22° C., and the relative humidity varied between 50-60%. Daily illumination lasted for 12 hours. The animals had been acclimatized for 10 days prior to the commencement of the investigation.
(§4) An erysopelothrix insidiosa serotype B-strain T28 was used to challenge the animals and a single 2 ml dose (ca 100-200 million germs) was administered subcutaneously. The examined spiroketalins were suspended in sterile physiological saline and administered at the rate of 3×10 mg/kg per day. Treatment continued from the day of challenge, either to the end of the trial or the death of an animal, at the rate of 5×per week.
The parameters for aorta thrombi have been evaluated according to the following key originally described by Schulz et al. Beitrag. Path., 154, 1-26 and 27-51, 1975.
KEY FOR CLINICAL AORTA THROMBI FINDINGS
2=Slight to medium changes
3=Medium to severe changes

haemolysis = conditions: cited from earlier work
Sprague-Dawley rats [2] = test: 100 day feeding study, 0,1% in standard laboratory chow; assay type: in vivo, rat (male Sprague-Dawley); conditions: for mortality: 100 day observation period
Source text: (b) Standard laboratory chow was thoroughly mixed with 0,1% diosgenyl glucoside or hecogenyl glucoside and the mixtures were fed to groups of 20 young male Sprague-Dawley rats weighing approximately 150 g. […] Ten rats from each group were autopsied and the organs and some body tissues examined by macroscopic and microscopic techniques.

[3] = system: yeast-induced hind paw oedema; test: yeast-induced acute paw oedema in rats; assay type: in vivo, rat; conditions: 500-1000 mg/kg orally or 50-100 mg/kg intraperitoneally, 24 hours before 2% yeast suspension
Method: The oral effectiveness of an anti-inflammatory agent is readily shown by administering it to animals (e.g. rats) either orally or parenterally before one of their hind paws is injected with a solution or suspension of an inflammation inducing substance such as kaolin, egg white, formaldehyde, carageenin or yeast. […] Distinct reductions in the acute oedema formation of between 10-40% were observed depending on the dose and route of administration. In order to achieve such reduction with the glucosides of diosgenin, hecogenin and tigogenin doses of 500-1000 mg/kg body mass orally or 50-100 mg/kg intraperitoneally had been administered, 24 hours before the animals were challenged with fresh 2% yeast suspension in physiological saline.

[4] = system: erysipelas-induced arthritis (corneal lesions); test: erysipelas-induced arthritis in the rat: corneal lesions (opaquacy); assay type: in vivo, rat (male Wistar); conditions: for CORNEAL LESIONS Degree of severity: 3×10 mg/kg per day, 5× per week, control 2,34; for CORNEAL LESIONS Present in % of rats, day 1: control 0; for CORNEAL LESIONS Present in % of rats, day 6 / CORNEAL LESIONS Present in % of rats, day 8 / CORNEAL LESIONS Present in % of rats, day 12 / CORNEAL LESIONS Present in % of rats, day 15 / CORNEAL LESIONS Present in % of rats, day 19 / CORNEAL LESIONS Present in % of rats, day 20: control 100
Method: as §1, §2
Inflammation opaquacy appears in the cornea around the 8th day.
as §3, §4

physchem = conditions: water
Sprague-Dawley rats [5] = test: single oral dose animal toxicity, 14 day observation; assay type: in vivo, rat (male Sprague-Dawley); conditions: single oral doses of 125,0; 312,5; 625,0 and 1250 mg/kg
Method: Individually housed groups of ten male Sprague-Dawley rats were treated orally with single doses of hecogenin 3-β-D-glucoside or diosgenin 3β-D-glucoside. The poorly water soluble test substances were made up in an aqueous Tylose^R dispersion for homogeneity.
A suitable concentration which allowed the administration of the relevant dose at the rate of 1,0 ml/100 g body weight was prepared immediately before use. Doses ranging from 125 mg/kg to 1250 mg/kg of the agents were tested. The observation period was 14 days after which the animals were sacrificed and a macroscopic examination of some tissues was carried out. Food and water was offered ad libitum.

[6] = rats, rabbits and chickens; cited from earlier work
[7] = system: rats, rabbits and chickens; conditions: cited from earlier work

Row | SMILES | AORTIC THROMBI Present in % of rats [1] | AORTIC THROMBI Degree of severity [1] | mortality (Sprague-Dawley rats [2]; 0,1% in chow) | reduction in acute oedema formation [3] | CORNEAL LESIONS Degree of severity [4] | CORNEAL LESIONS Present in % of rats, day 1 [4] | CORNEAL LESIONS Present in % of rats, day 6 [4] | CORNEAL LESIONS Present in % of rats, day 8 [4] | CORNEAL LESIONS Present in % of rats, day 12 [4] | CORNEAL LESIONS Present in % of rats, day 15 [4] | CORNEAL LESIONS Present in % of rats, day 19 [4] | CORNEAL LESIONS Present in % of rats, day 20 [4] | other results
1 | C[C@@H]1CC[C@@]2(OC1)O[C@H]1C[C@H]3[C@@H]4CC=C5C[C@@H](O[C@@H]6O[C@H](CO)[C@@H](O)[C@H](O)[C@H]6O)CC[C@]5(C)[C@H]4CC[C@]3(C)[C@H]1[C@@H]2C [Diosgenyl Glucoside, diosgenyl β-D-glucoside] | 44% | 1,33 (± 1,66) | No mortality occurred | 10-40% | 1,05 | 0% | 85,7% | 100% | 100% | 50% | 25% | 0% | solubility (water solubility; 25° C.): ~5 µg/mL (≈ 8.67 µM); solubility (water solubility; room temperature, colloidal solution): 5 µg/mL (≈ 8.67 µM); in vitro haemolytic effects (haemolysis; in vitro, reference (6)): without showing the usual in vitro haemolytic effects; drug-related pathological changes (Sprague-Dawley rats [2]; rat, in vivo): No drug-related pathological changes were detected in any tissues
2 | C[C@@H]1CC[C@@]2(OC1)O[C@H]1C[C@H]3[C@@H]4CC[C@H]5C[C@@H](O[C@@H]6O[C@H](CO)[C@@H](O)[C@H](O)[C@H]6O)CC[C@]5(C)[C@H]4CC(=O)[C@]3(C)[C@H]1[C@@H]2C [Hecogenyl Glucoside, hecogenyl β-D-glucoside] | 50% | 1,38 (± 1,51) | No mortality occurred | 10-40% | 0,89 | 0% | 87,5% | 100% | 100% | 100% | 20% | 0% | solubility (physchem): ~5 µg/mL (≈ 8.43 µM); in vitro haemolytic effects (haemolysis): without showing the usual in vitro haemolytic effects; tolerability (Sprague-Dawley rats [5]): well tolerated; drug-related pathological changes (Sprague-Dawley rats [2]; 0,1% in chow, autopsy, macroscopic and microscopic): No drug-related pathological changes were detected in any tissues
3 | CC[C@H](CC[C@@H](C)[C@H]1CC[C@H]2[C@@H]3CC=C4C[C@@H](O[C@@H]5O[C@H](CO)[C@@H](O)[C@H](O)[C@H]5O)CC[C@]4(C)[C@H]3CC[C@]12C)C(C)C [Sitosteryl-β-D-Glucoside, reference compound] | 70% | 2,00 (± 1,63) |  |  | 1,20 | 20% | 90% | 100% | 100% | 17% | 25% | 0% | 
4 | C[C@@H]1CC[C@@]2(OC1)O[C@H]1C[C@H]3[C@@H]4CC[C@H]5C[C@@H](O[C@@H]6O[C@H](CO)[C@@H](O)[C@H](O)[C@H]6O)CC[C@]5(C)[C@H]4CC[C@]3(C)[C@H]1[C@@H]2C [Tigogenyl Glucoside, tigogenyl β-D-glucoside] |  |  |  | 10-40% |  |  |  |  |  |  |  |  | 
5 | C[C@@H]1CC[C@@]2(OC1)O[C@H]1C[C@H]3[C@@H]4CC=C5C[C@@H](O)CC[C@]5(C)[C@H]4CC[C@]3(C)[C@H]1[C@@H]2C [diosgenin] |  |  |  |  |  |  |  |  |  |  |  |  | serum cholesterol levels [6]: lowers the serum cholesterol levels; toxicity [7]: non-toxic
